Results on one compound are retold here after patent US11938121B2, “Treatment of infections and biofilm formation using a cellulose synthase inhibitor” (Purdue Research Foundation, priority 2020, dated 2024).

The test system of experiment [1] is rice (Oryza sativa). As to the kind of experiment: Rice seedling root growth. The format is in vivo. As to conditions: 20 μM, 6-day-old seedlings. An excerpt: (§1) ES20 has broad spectrum inhibitory effect on the growth of both dicotyledonous and monocotyledonous plants (Huang and Zhang, Plant Signal Behav. 2020, 15, 1780039). We tested whether ES20-1 has stronger inhibitory effect on the growth of monocotyledon plants than ES20. We grew rice (Oryza sativa) and maize (Zea mays) seedlings on the same concentrations of ES20 and ES20-1 and compared their effects on growth.

Experiment [2] deals with maize (Zea mays). Nature of the experiment: Maize seedling root growth. Type of experiment: in vivo. As to conditions: 20 μM, 6-day-old seedlings.
From the text: as §1

The test system of experiment [3] is Komagataeibacter xylinus. Nature of the experiment: K. xylinus cellulose production in liquid culture. Type of experiment: cell-based. To be noted: 20 μM. An excerpt: We next grew K. xylinus cells in growth medium supplemented with DMSO, ES20, or ES20-1 under agitation. […] We also grew K. xylinus in liquid medium supplemented with DMSO, ES20, or ES20-1 under static cultivation conditions. Without agitation, pellicles containing cellulose often form at the air-liquid interface. […] To quantify the effects of ES20 and ES20-1 on cellulose production, we harvested the pellicles from these cultures and isolated cellulose from the pellicles.
(§2) Komagataeibacter xylinus (previously named Gluconacetobacter xylinus) ATCC strain 700178 was obtained from ATCC (Manassas, Va., USA) to evaluate cellulose production. HS (Hestrin and Schramm) medium was used for culture; HS liquid medium contains 2.0% glucose (w/v), 0.5% yeast extract (w/v), 0.5% peptone (w/v), 0.27% Na2HPO4 (w/v), and 0.15% citric acid (w/v), pH 5.0, and HS solid medium was solidified with 1.8% agar (w/v). To prepare the initial inoculation source, a single K. xylinus colony grown on HS solid medium was transferred to HS liquid medium and cultured at 26° C. for 5 days under static conditions. We used cells from the bottom of the liquid culture as the initial inoculation source to avoid biofilm aggregates at the air-liquid interface. To test the effect of ES20 and ES20-1 on the bacteria growth, initial inoculation source was series diluted and 20 μL culture from each diluted solution was dropped on HS solid medium supplemented with DMSO (0.1%) or different concentrations of ES20 and ES20-1 and cultured at 26° C. for 6 days after the dropped culture was completely dry. To test the effects of ES20 and ES20-1 on cellulose production, the prepared inoculation source was inoculated at a dilution ratio of 1:1000 dilution in HS liquid medium supplemented with 0.1% DMSO or 20 μM of ES20 or ES20-1. Static cultivation was carried out in a 26° C. incubator, and agitated cultivation was carried out at 26° C. with shaking at 220 rpm. To isolate cellulose from pellicles, the pellicles were removed from liquid culture, washed several times with deionized water, and soaked in 0.1 M NaOH at 80° C. for 2 h. The pellicles were washed several times with deionized water to completely remove the alkali. The purified cellulose was dried at 60° C. for ˜1 day until a constant dry mass was reached.

The target of experiment [4] is T1, GFP-CESA6c (central cytosolic domain of AtCESA6) (Arabidopsis thaliana, UniProt Q94JQ6).
T1 construct: made in house; host or cells: E. coli
Nature of the experiment: MST assay with GFP-CESA6c. As to conditions: 100 nM GFP-CESA6c. The format is binding. From the text:
(§3) To obtain the central cytosolic domain of AtCESA6 for the MST assay, we inserted the GFP coding sequence into the SacI and PstI restriction enzyme sites of the pRSF-Duet-1 vector (Huang et al., 2020). The GFP coding sequence was amplified from the pUBN-GFP-DEST vector. The sequence encoding the central cytosolic domain of CESA6 (CESA6c) was amplified from Col-0 cDNA and fused with GFP at the C-terminus. CESA6c construct was used as a template for creating CESA6c^P595S construct by site-directed mutagenesis. Protein purification was performed as previously described (Huang et al., 2020).
(§4) MST assays were carried out using a Monolith NT.115 (NanoTemper) machine at the Chemical Genomics Facility at Purdue University. […] The ES20-1 was dissolved in DMSO, and the final concentration of DMSO was 5% (vol/vol). MST standard capillaries were used to load the samples into the MST instrument. Triplicate reactions were performed for each test. The MST data were processed using MO. Affinity Analysis Version 2.3 software.

The subject of experiment [5] is Arabidopsis Col-0. As to the kind of experiment: Crystalline cellulose content measurement of cell wall. Type of experiment: in vivo, Arabidopsis thaliana. As to conditions: 1 μM, 7-day-old dark-grown seedlings. The method, then:
Arabidopsis Col-0 seeds were sown on growth medium supplemented with 0.1% DMSO, 1 μM ES20, or different concentrations of ES20 analogs. […] Cellulose extraction and measurement were performed as previously described (Huang et al., 2020).

Experiment [6] addresses T2, YFP-AtCESA6 cellulose synthase complexes (CSCs) in root epidermal cells (Arabidopsis thaliana, UniProt Q94JQ6).
T2 construct: expressed in transfected cells; host or cells: transgenic Arabidopsis thaliana YFP-AtCESA6 seedlings (total protein extract for DARTS; root epidermal cells for imaging)
As to conditions: Huang et al., 2020; cited from earlier work.

For experiment [7], the system named is Komagataeibacter xylinus. As to the kind of experiment: K. xylinus cell growth on HS solid medium. The format is cell-based. To be noted: 6 days.
From the text: Based on primary protein sequence analysis and a comparison of three-dimensional protein structures, the catalytic sites of cellulose synthases are highly conserved across kingdoms (Huang et al., 2020, Purushotham et al., 2020). The amino acids that are directly involved in glucan chain initiation, elongation, and translocation are conserved between plant and bacterial cellulose synthases (Huang et al., 2020). Based on the conservation of catalytic sites in cellulose synthases, we hypothesized that ES20 and ES20-1 would inhibit bacterial cellulose biosynthesis as well. We chose to test the effects of ES20 and ES20-1 on cell growth and cellulose production in Komagataeibacter xylinus (K. xylinus, previously known as Gluconacetobacter xylinus) because this bacterium produces abundant cellulose. We first tested whether ES20 and ES20-1 affect K. xylinus cell growth. We grew K. xylinus cells in liquid […] (HS) medium and then we inoculated 20 μL of series diluted culture to HS solid growth medium supplemented with DMSO (0.1%) or different concentrations of ES20 and ES20-1. […] We found ES20 and ES20-1 affect K. xylinus colony morphology as well. […] Wrinkles radiating structure is often observed in cellulose-producing bacteria strains and this structure is often affected when cellulose biosynthesis is disrupted.
as §2, with “To isolate cellulose from pellicles, the pellicles were removed from liquid culture, washed several times with deionized water, and soaked in 0.1 M NaOH at 80° C. for 2 h. The pellicles were washed several times with deionized water to completely remove the alkali. The purified cellulose was dried at 60° C. for ˜1 day until a constant dry mass was reached.” left out

Experiment [8] has as its system AtCESA6 (cesa6 alleles es20r1-es20r15). To be noted: Huang et al., 2020; cited from earlier work.
The test system of experiment [9] is Rhodobacter sphaeroidesin. Nature of the experiment: Rhodobacter sphaeroidesin growth in overnight culture. Type of experiment: cell-based, Rhodobacter sphaeroides. As to conditions: vs DMSO control media. An excerpt: To test the effect of Endosidin20/Cellulosin in bacterial cell growth, we first grew Rhodobacter sphaeroidesin in the presence of Ensodin20/Cellulosin.

The test system of experiment [10] is Arabidopsis Col-0. As to conditions: 1 μM; cited from earlier work.
In experiment [11] the test system is AtCESA6 carrying missense mutations in prc1-1. As to conditions: Huang et al., 2020; cited from earlier work.
Experiment [12] concerns the target T3, GFP-CESA6c^P595S (Arabidopsis thaliana, UniProt Q94JQ6, P595S).
T3 construct: We purified AtCESA6 central cytoplasmic domain carrying missense mutation P595S (CESA6c^P595S); made in house; host or cells: E. coli (inferred from the wild-type CESA6c construct that served as template)
As to the kind of experiment: MST assay with GFP-CESA6c^P595S. Type of experiment: binding.
From the text: as §3, §4

The mark [13] stands for this setting: 5 days static cultivation, vs DMSO.

Turning to `COc1ccc(C(=O)NC(=S)NNC(=O)c2ccccc2C)cc1` [ES20, Endosidin20], in [1], the “rice root growth inhibition” value was “could inhibit the root growth”. Moreover, the “maize root growth inhibition” value in [2] was “could inhibit the root growth”. The “size of cellulose clusters” value in [3] (5 days agitated cultivation, vs DMSO) is on record as “smaller”. The “dry mass of cellulose from pellicles” value in [3] (5 days static cultivation, mean±SD, n=9) is 268 ± 139 mg/L. In [3] (setting [13]), the “decrease of dry mass of cellulose from pellicles” value is about 45% and the pellicle thickness entry was “pellicles in cultures containing DMSO are thicker”. Also, the “interaction with CESA6c” value in experiment [4] is “interacted”. Besides, the “crystalline cellulose content in hypocotyl cell wall” value in experiment [5] (mean±SD, n=3) amounted to 109 ± 4 µg/mg. The “reduction of crystalline cellulose levels in the hypocotyl” value in experiment [5] (vs DMSO) is recorded as “approximately 35%”. In experiment [6], the “effect on CSC motility, density and localization” value was “reduces the motility and density of CSCs at the PM and induces their accumulation at the SmaCCs and Golgi”; the “effect on delivery rate of CSCs to PM” value was “reduced the delivery rate of CSCs to PM”. In addition, the “K. xylinus cell growth inhibition” value in experiment [7] (20 μM and 50 μM) is “inhibit K. xylinus cell growth at both 20 μM and 50 μM concentrations”. In [7] (20 μM), the “K. xylinus colony morphology (wrinkles radiating structures)” value was “the wrinkles are not obvious”. In experiment [8], the “sensitivity of es20r1-es20r15 mutants to ES20” value was “reduced sensitivity”. Moreover, the “growth of Rhodobacter sphaeroidesin” value in experiment [9] is reported as “significantly slower”. The “inhibition of Arabidopsis thaliana root growth” value in [10] was “more than 50%”. For the same compound, the “sensitivity of transgenic plants with AtCESA6 catalytic site mutations to ES20” value in [11] was “also had reduced sensitivity”. The “interaction with CESA6c^P595S” value in [12] is reported as “interacts”.
